Source: ChEMBL document CHEMBL1147540, “Design, synthesis, and SAR of 2-dialkylamino-4-arylpyrimidines as potent and selective corticotropin-releasing factor(1) (CRF(1)) receptor antagonists” (Bioorg Med Chem Lett, 2004)
pEC50, pKi: −log10 of the molar value.

What was measured:
[1] = target: T1, Corticotropin-releasing factor receptor 1 (Homo sapiens, UniProt P34998); test: biochemical; assay type: cell-based, CHO
T1 sequence (P34998 whole entry): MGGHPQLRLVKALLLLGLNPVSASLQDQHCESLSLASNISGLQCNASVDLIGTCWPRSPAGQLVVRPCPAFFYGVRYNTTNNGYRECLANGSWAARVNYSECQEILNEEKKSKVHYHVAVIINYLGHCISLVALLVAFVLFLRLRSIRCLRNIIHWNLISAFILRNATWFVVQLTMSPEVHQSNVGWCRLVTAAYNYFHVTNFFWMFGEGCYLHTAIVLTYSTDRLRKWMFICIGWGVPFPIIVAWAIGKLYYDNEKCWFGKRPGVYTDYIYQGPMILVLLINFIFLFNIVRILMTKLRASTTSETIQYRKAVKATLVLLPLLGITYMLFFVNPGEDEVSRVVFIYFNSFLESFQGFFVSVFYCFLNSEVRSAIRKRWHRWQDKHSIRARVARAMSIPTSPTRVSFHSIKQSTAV

[2] = target: T1, Corticotropin-releasing factor receptor 1; test: Binding affinity towards human Corticotropin releasing factor receptor 1 by the displacement of [125I]CRF from CHO cells; IA means Inactive; assay type: cell-based
[3] = target: T2, Corticotropin-releasing factor receptor 2 (Homo sapiens, UniProt Q13324); test: Binding affinity towards human Corticotropin releasing factor receptor 2 by the displacement of [125I]CRF from CHO cells; IA means Inactive; assay type: cell-based
T2 sequence (Q13324 whole entry): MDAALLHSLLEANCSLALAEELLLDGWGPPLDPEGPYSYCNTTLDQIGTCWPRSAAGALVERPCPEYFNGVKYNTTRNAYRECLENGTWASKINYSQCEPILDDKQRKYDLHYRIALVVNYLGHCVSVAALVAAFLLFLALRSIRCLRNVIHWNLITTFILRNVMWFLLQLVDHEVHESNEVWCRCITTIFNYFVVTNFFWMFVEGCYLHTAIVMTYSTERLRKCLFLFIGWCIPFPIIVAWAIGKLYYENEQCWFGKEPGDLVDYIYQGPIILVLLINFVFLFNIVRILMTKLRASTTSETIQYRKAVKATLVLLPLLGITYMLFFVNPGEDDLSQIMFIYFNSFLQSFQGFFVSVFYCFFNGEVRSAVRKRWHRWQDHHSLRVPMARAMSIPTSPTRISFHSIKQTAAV

[4] = target: T1, Corticotropin-releasing factor receptor 1; test: Effective dose against CRF stimulated cAMP production in CHO cells expressing human Corticotropin releasing factor receptor 1; assay type: functional, cell-based
[5] = target: T1, Corticotropin-releasing factor receptor 1; test: Effective dose against human Corticotropin releasing factor receptor 1 stimulated ACTH release from primary rat anterior pituitary cell cultures; assay type: functional, cell-based, Pituitary gland cell

pKi [1]	Structure (SMILES)	further results
6.60	CCCN(c1nccc(-c2c(OC)cc(OC)cc2OC)n1)C1(c2cccs2)CC1	
6.34	CCCN(c1nccc(-c2ccc(OC)cc2OC)n1)C(C1CC1)C1CC1	
	CCCN(c1nc(C)c(C)c(-c2ccc(Br)cc2)n1)C(C1CC1)C1CC1	Ki [2]: Not Active
7.82	CCCN(c1nccc(-c2c(OC)cc(OC)cc2OC)n1)C(C1CC1)C1CC1	Ki [3]: Not Active; pEC50 [4]: 6.00; pEC50 [5]: 6.01
6.15	CCCN(c1nccc(-c2c(OC)cc(OC)cc2OC)n1)C1(c2ccoc2)CC1	
	COc1cc(OC)c(-c2ccnc(NC(C3CC3)C3CC3)n2)c(OC)c1	Ki [2]: Not Active
7.72	CCCN(c1ncc(C)c(-c2ccc(OC)cc2OC)n1)C(C1CC1)C1CC1	
6.62	CCCN(c1nccc(-c2c(OC)cc(OC)cc2OC)n1)[C@@H](c1ccccc1)C1CC1	
	CCCN(c1nccc(-c2c(OC)cc(OC)cc2OC)n1)c1cccc2ccccc12	Ki [2]: Not Active
7.20	CCCN(c1nccc(-c2c(F)cc(OC)cc2OC)n1)C(C1CC1)C1CC1	
	CCCN(c1ncc(C(=O)OC)c(-c2ccc(OC)cc2OC)n1)C(C1CC1)C1CC1	Ki [2]: Not Active
7.00	C=CCN(c1nccc(-c2c(OC)cc(OC)cc2OC)n1)C(C1CC1)C1CC1	
	COc1cc(OC)c(-c2ccnc(N)n2)c(OC)c1	Ki [2]: Not Active
7.31	CCCN(c1ncc(C)c(-c2ccc(Br)cc2)n1)C(C1CC1)C1CC1	
6.07	CCCN(c1ncc(CC)c(-c2ccc(OC)cc2OC)n1)C(C1CC1)C1CC1	
7.20	CCCN(c1ncc(C)c(-c2ccc(Br)cc2C)n1)C(C1CC1)C1CC1	
7.82	CCCN(c1ncc(C)c(-c2c(OC)cc(OC)cc2OC)n1)C(C1CC1)C1CC1	
7.96	CCCN(c1nccc(-c2c(Cl)cc(OC)cc2OC)n1)C(C1CC1)C1CC1	Ki [3]: Not Active; pEC50 [4]: 5.80; pEC50 [5]: 5.96
